Experimental data from PubChem BioAssay (NCI).
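Briefly, cells in 96-well plates were exposed to five compound concentrations for 48 h, and endpoints were estimated by linear interpolation. Abbreviation: GI50, concentration required for 50% inhibition of growth. At the TGI there is no net growth.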

Key:
Assay in all cases: NCI anticancer screen, dose series, 48 h
[1] = tested on: EKVX NSCLC
[2] = tested on: UACC-257 melanoma
[3] = tested on: PC-3 prostate
[4] = tested on: CAKI-1 renal
[5] = tested on: A498 renal
[6] = tested on: SK-OV-3 ovarian
[7] = tested on: SN12C renal
[8] = tested on: NCI-H226 lung
[9] = tested on: HOP-62 NSCLC
[10] = tested on: A549 NSCLC
[11] = tested on: OVCAR-3 ovarian
[12] = tested on: M14 melanoma
[13] = tested on: COLO 205 colon
[14] = tested on: SK-MEL-28 melanoma
[15] = tested on: SK-MEL-2 melanoma
[16] = tested on: OVCAR-8 ovarian
[17] = tested on: HCC-2998 colon
[18] = tested on: ACHN renal
[19] = tested on: SF-268 CNS
[20] = tested on: CCRF-CEM leukemia
[21] = tested on: SW-620 colon
[22] = tested on: HCT-116 colon
[23] = tested on: SR leukemia
[24] = tested on: SNB-75 CNS
[25] = tested on: HOP-92 NSCLC
[26] = tested on: NCI-H460 lung
[27] = tested on: TK-10 renal
[28] = tested on: SNB-19 CNS
[29] = tested on: U251 CNS
[30] = tested on: HCT-15 colon
[31] = tested on: OVCAR-5 ovarian
[32] = tested on: HT29 colon
[33] = tested on: OVCAR-4 ovarian
[34] = tested on: KM12 colon
[35] = tested on: SF-539 CNS
[36] = tested on: MCF7 breast
[37] = tested on: IGROV1 ovarian
[38] = tested on: SK-MEL-5 melanoma
[39] = tested on: T-47D breast
[40] = tested on: LOX IMVI melanoma
[41] = tested on: K-562 leukemia
[42] = tested on: UO-31 renal
[43] = tested on: MDA-MB-231 breast
[44] = tested on: HL-60(TB) leukemia
[45] = tested on: SF-295 CNS
[46] = tested on: UACC-62 melanoma
[47] = tested on: MALME-3M melanoma
[48] = tested on: RPMI-8226 leukemia
[49] = tested on: DU-145 prostate
[50] = tested on: NCI-H522 lung
[51] = tested on: 786-0 renal
[52] = tested on: MOLT-4 leukemia
[53] = tested on: NCI-H23 lung
[54] = tested on: MDA-MB-468 breast
[55] = tested on: RXF 393 renal
[56] = tested on: HS 578T breast
[57] = tested on: BT-549 breast
[58] = tested on: MDA-MB-435

COc1cc2c(cc1OC)CN(CCCCOc1cc(O)c3c(=O)cc(-c4ccccc4)oc3c1)CC2
GI50 [1]: 71 µM | TGI [1]: > 100 µM | GI50 [2]: 5.28 µM | TGI [2]: 18.6 µM | GI50 [3]: 6.44 µM | TGI [3]: > 100 µM | GI50 [4]: 13.1 µM | TGI [4]: 97.5 µM | GI50 [5]: 25.8 µM | TGI [5]: 63.6 µM | GI50 [6]: 15.7 µM | TGI [6]: 50.8 µM | GI50 [7]: 6.25 µM | TGI [7]: > 100 µM | GI50 [8]: 10.2 µM | TGI [8]: > 100 µM | GI50 [9]: 22.2 µM | TGI [9]: > 100 µM | GI50 [10]: 16.1 µM | TGI [10]: > 100 µM | GI50 [11]: 13.1 µM | TGI [11]: 50.3 µM | GI50 [12]: 2.96 µM | TGI [12]: 11.3 µM | GI50 [13]: 3.27 µM | TGI [13]: 12.6 µM | GI50 [14]: 5.32 µM | TGI [14]: 19.6 µM | GI50 [15]: 14 µM | TGI [15]: 40.1 µM | GI50 [16]: 18.9 µM | TGI [16]: > 100 µM | GI50 [17]: 7.91 µM | TGI [17]: 22.1 µM | GI50 [18]: 8.74 µM | TGI [18]: > 100 µM | GI50 [19]: 10.6 µM | TGI [19]: > 100 µM | GI50 [20]: 5.17 µM | TGI [20]: > 100 µM | GI50 [21]: 11.3 µM | TGI [21]: 35.4 µM | GI50 [22]: 3.42 µM | TGI [22]: 13.4 µM | GI50 [23]: 1.85 µM | TGI [23]: 4.67 µM | GI50 [24]: 4 µM | TGI [24]: 45.4 µM | GI50 [25]: 8.92 µM | TGI [25]: > 100 µM | GI50 [26]: 7.07 µM | TGI [26]: 41.5 µM | GI50 [27]: 57.4 µM | TGI [27]: > 100 µM | GI50 [28]: 28.5 µM | TGI [28]: > 100 µM | GI50 [29]: 11.9 µM | TGI [29]: 56.6 µM | GI50 [30]: 6.7 µM | TGI [30]: 31.8 µM | GI50 [31]: 40.7 µM | TGI [31]: > 100 µM | GI50 [32]: 3.34 µM | TGI [32]: 12.4 µM | GI50 [33]: 4.01 µM | TGI [33]: 91.5 µM | GI50 [34]: 10.3 µM | TGI [34]: 36.9 µM | GI50 [35]: 10.4 µM | TGI [35]: 23.8 µM | GI50 [36]: 6.06 µM | TGI [36]: 35.4 µM | GI50 [37]: 26.4 µM | TGI [37]: > 100 µM | GI50 [38]: 11 µM | TGI [38]: 23.5 µM | GI50 [39]: 9.01 µM | TGI [39]: 65.9 µM | GI50 [40]: 4.51 µM | TGI [40]: 15.3 µM | GI50 [41]: 2.48 µM | TGI [41]: 10.8 µM | GI50 [42]: 10.3 µM | TGI [42]: 26.4 µM | GI50 [43]: 10.6 µM | TGI [43]: 44.8 µM | GI50 [44]: 2.32 µM | TGI [44]: 13.8 µM | GI50 [45]: 10.7 µM | TGI [45]: 25 µM | GI50 [46]: 2.67 µM | TGI [46]: 7.92 µM | GI50 [47]: 2.95 µM | TGI [47]: 8.16 µM | GI50 [48]: 4.29 µM | TGI [48]: 24.3 µM | GI50 [49]: 32.1 µM | TGI [49]: > 100 µM | GI50 [50]: 12.5 µM | TGI [50]: 29.4 µM | GI50 [51]: 3.53 µM | TGI [51]: 14.4 µM | GI50 [52]: 3.09 µM | TGI [52]: 19.6 µM | GI50 [53]: 24.5 µM | TGI [53]: > 100 µM | GI50 [54]: 2.07 µM | TGI [54]: 14 µM | GI50 [55]: 1.69 µM | TGI [55]: 10.9 µM | GI50 [56]: 11.6 µM | TGI [56]: 52 µM | GI50 [57]: 8.53 µM | TGI [57]: 22.9 µM | GI50 [58]: 13.2 µM | TGI [58]: 41.9 µM
